Test results from patent US5200335A (Forschungszentrum Juelich GmbH, priority 1990, dated 1993).
“Also recorded” adds a separate entry of the source. Like-named read-outs stand apart in the source and are kept apart here.

Experiments:
[1] = biological target: T1, phenylethanol dehydrogenase (Lentilactobacillus kefiri, UniProt Q6WVP7); experiment: NADPH-dependent reduction: substrate spectrum and dependence of reaction rate on acetophenone/NADPH concentration
T1 sequence (Q6WVP7 2-252 limits assumed): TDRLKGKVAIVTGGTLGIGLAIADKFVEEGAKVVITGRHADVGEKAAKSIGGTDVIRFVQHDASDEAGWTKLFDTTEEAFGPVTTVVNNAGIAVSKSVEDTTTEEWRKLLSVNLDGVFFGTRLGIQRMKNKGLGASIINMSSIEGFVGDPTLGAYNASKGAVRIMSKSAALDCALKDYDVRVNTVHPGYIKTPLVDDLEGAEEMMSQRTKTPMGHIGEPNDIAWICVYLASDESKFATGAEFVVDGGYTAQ

[2] = biological target: T1, phenylethanol dehydrogenase; experiment: NADP+-dependent oxidation / reverse reaction with R(+)- or S(-)-phenylethanol; conditions: for Enzyme activity (oxidation): 11 mM alcohol, pH 8.0, NADP+, 340 nm, 30° C.; for Stereospecificity / effect on the enzyme (in words): comparison of mixtures I, II and III; for Vmax: NADP+-dependent oxidations
Method: (§1) The optimum pH for the reverse reaction, the oxidation of phenylethanol, was measured in an analogous manner. (±)-Phenylethanol (22 mM) was dissolved in aliquots of a 0.1M buffer and the pH was adjusted to a range from 4.0 to 10.0.
(§2) A third mixture containing 22 mM (±)-phenylethanol was employed for comparison. Enzyme activity was measured by photometry at 340 nm at 30° C.

[3] = biological target: T1, phenylethanol dehydrogenase; experiment: Effect of metal cations, inhibitors and SH-protecting reagents on enzyme activity; format: biochemical, Lactobacillus kefir
Method: Partially purified enzyme (after Mono-Q chromatography, concentrated 20-fold) was employed for the following tests.
(i) METAL CATIONS: The effect of Mg^2+, […] and Mn^2+ ions was investigated using the assay mixture detailed below. […]
(ii) INHIBITORS AND SH-[…]: An assay mixture according to Example 2 C(i) without added metal cations but with addition of various inhibitors or SH-[…] at a final concentration of 1 mM was used to determine the effect of certain enzyme inhibitors and SH-[…] on enzyme activity. […] Phenylmethanesulfonyl fluoride was dissolved in acetonitrile to a final concentration of acetonitrile of […]. Acetonitrile alone had no effect on the enzyme activity in control tests.

[4] = substrate: CC(C)=O; experiment: purified protein, by the assay type; conditions: other: NADPH-dependent reductions, pH 7.0, 0.2 mM NADPH, partially purified enzyme, 30.0 °C
[5] = substrate: NC(=O)C1=CN([C@@H]2O[C@H](COP(=O)(O)OP(=O)(O)OC[C@H]3O[C@@H](n4cnc5c(N)ncnc54)[C@H](OP(=O)(O)O)[C@@H]3O)[C@@H](O)[C@H]2O)C=CC1; experiment: purified protein, by the assay type; conditions: other: NADPH 13 to 380 μM, 5.3 mM acetophenone, pH 7.0, 30° C.
[6] = substrate: CCCCCC(=O)CC; experiment: purified protein, by the assay type; conditions: other: NADPH-dependent reductions, pH 7.0, 0.2 mM NADPH, partially purified enzyme, 30.0 °C
[7] = substrate: CCC(=O)c1ccccc1; experiment: purified protein, by the assay type; conditions: pH 7.0; 30.0 °C
[8] = substrate: CC(=O)c1ccc(Br)cc1; experiment: purified protein, by the assay type; conditions: other: NADPH-dependent reductions, pH 7.0, 0.2 mM NADPH, partially purified enzyme, 30.0 °C
[9] = substrate: CC(=O)c1ccc(Cl)cc1; experiment: purified protein, by the assay type; conditions: pH 7.0; 30.0 °C
[10] = substrate: CC(=O)C(C)(C)C; experiment: purified protein, by the assay type; conditions: pH 7.0; 30.0 °C
[11] = substrate: CC(=O)c1ccccc1; experiment: purified protein, by the assay type; conditions: other: acetophenone 50-7100 μM, 0.2 mM NADPH, pH 7.0, 30° C.
[12] = substrate: CC(=O)CCc1ccccc1; experiment: purified protein, by the assay type; conditions: other: NADPH-dependent reductions, pH 7.0, 0.2 mM NADPH, partially purified enzyme, 30.0 °C
[13] = substrate: CCCCCCC(C)=O; experiment: purified protein, by the assay type; conditions: other: NADPH-dependent reductions, pH 7.0, 0.2 mM NADPH, partially purified enzyme, 30.0 °C
[14] = substrate: CC(C)O; experiment: cells, lysate or membranes named; conditions: other: NADP+-dependent oxidations; 30.0 °C
[15] = substrate: NC(=O)c1ccc[n+]([C@@H]2O[C@H](COP(=O)(O)OP(=O)(O)OC[C@H]3O[C@@H](n4cnc5c(N)ncnc54)[C@H](OP(=O)(O)O)[C@@H]3O)[C@@H](O)[C@H]2O)c1; experiment: cells, lysate or membranes named; conditions: other: NADP+-dependent oxidations; 30.0 °C
Method: as §1, §2

[16] = substrate: C[C@@H](O)c1ccccc1; experiment: cells, lysate or membranes named; conditions: other: NADP+-dependent oxidations; 30.0 °C
Method: as §1, §2

[17] = substrate: CC(O)c1ccccc1; experiment: cells, lysate or membranes named; conditions: other: NADP+-dependent oxidations; 30.0 °C
Method: as §1, §2

[18] = NADPH-dependent reductions, […]
[19] = pH 7, read-out: Activity remaining
[20] = addition at final concentration 1 mM; 5.5 mM acetophenone, 0.2 mM NADPH, pH 7.0; partially purified enzyme
[21] = NADPH-dependent reductions, pH 7.0, 0.2 mM NADPH, partially purified enzyme
[22] = pH 7; read-out: Activity remaining

## CCC(=O)c1ccccc1 [Propiophenone]
[1]; [18]
  Vmax: 43%
[1]; in the presence of NADPH
  Reduction by the enzyme (in words): capable of catalyzing the reduction; also recorded: capable of reducing

## CC(=O)C=C(C)C [Mesityl oxide, 4-methyl-3-pentene-2-one]
[1]; [18]
  Vmax: 12%

## CC(=O)c1ccc(Br)cc1 [4-Bromoacetophenone]
[1]; [18]
  Vmax: 101%
[1]; in the presence of NADPH, listed as p-bromoacetophenone
  Reduction by the enzyme (in words): capable of catalyzing the reduction; also recorded: capable of reducing

## C[C@H](O)c1ccccc1 [Mixture II, S(-)-phenylethanol]
[2]
  Enzyme activity (oxidation): 0 U/ml
  Stereospecificity / effect on the enzyme (in words): inhibits the enzyme

## CC(=O)C(=O)c1ccccc1 [1-Phenyl-1,2-propanedione]
[1]; [18]
  Vmax: 70%
[1]; in the presence of NADPH
  Reduction by the enzyme (in words): capable of catalyzing the reduction; also recorded: capable of reducing

## N[C@@H](CCC(=O)N[C@@H](CS)C(=O)NCC(=O)O)C(=O)O [Glutathione]
[3]; [19]
  remaining activity at 1000 µM: 99%

## O=C(O)CN(CCN(CC(=O)O)CC(=O)O)CC(=O)O [EDTA]
[3]
  Effect on enzyme activity (in words): completely inhibited; also recorded: rapidly inactivated; also recorded: rapid inactivation
[3]; [19]
  remaining activity at 1000 µM: 0%

## CC(C)O [Isopropanol]
[2]
  Vmax: 18%

## CC(=O)C(C)(C)C [Pinacolone]
[1]
  Reduction by the enzyme (in words): capable of catalyzing the reduction; also recorded: capable of reducing
[1]; pH 7
  Vmax: 53%

## [Cl][Mn][Cl] [MnCl2]
[3]; [20]
  Activity remaining: 114%

## (±)-Methylcyclohexanone
[1]; [21]
  Km: 70000 µM
  Vmax: 109%
[1]; in the presence of NADPH
  Reduction by the enzyme (in words): capable of catalyzing the reduction; also recorded: capable of reducing

## O[C@H](CS)[C@H](O)CS (racemic) [Dithiothreitol]
[3]; [22]
  remaining activity at 1000 µM: 95%

## O=Cc1ccccc1 [Benzaldehyde]
[1]; [18]
  Vmax: 10%

## [Cl-].[Cl-].[Zn+2] [ZnCl2]
[3]; [20]
  Activity remaining: 114%

## CC(=O)c1ccc(Cl)cc1 [4-Chloroacetophenone]
[1]; [18]
  Vmax: 93%
[1]; in the presence of NADPH, listed as p-chloroacetophenone
  Reduction by the enzyme (in words): capable of catalyzing the reduction; also recorded: capable of reducing

## NC(=O)C1=CN([C@@H]2O[C@H](COP(=O)(O)OP(=O)(O)OC[C@H]3O[C@@H](n4cnc5c(N)ncnc54)[C@H](OP(=O)(O)O)[C@@H]3O)[C@@H](O)[C@H]2O)C=CC1 [NADPH]
[1]; 5.3 mM acetophenone, pH 7.0, 30° C.
  NADPH concentration at maximum enzyme activity: 190 µM
[1]; [21]
  Vmax: 100%
[1]; at 190 μM NADPH, 5.3 mM acetophenone
  Maximum enzyme activity: 16.9 U/ml

## O=S(=O)(F)Cc1ccccc1 [Phenylmethanesulfonyl fluoride]
[3]; [20]
  Activity remaining: 94%

## Triton X-100
[3]; [20]
  Activity remaining: 94%

## c1ccc(-c2ccccn2)nc1 [2,2'-Dipyridine]
[3]
  Effect on enzyme activity (in words): virtually no inhibition
[3]; [22]
  remaining activity at 1000 µM: 106%

## O=C(O)c1cc[c]([Hg][OH])cc1 [p-Hydroxymercurybenzoate]
[3]
  Effect on enzyme activity (in words): relatively weak inhibition
[3]; addition at final concentration 0.1 mM; 5.5 mM acetophenone, 0.2 mM NADPH, pH 7.0; partially purified enzyme
  Activity remaining: 92%

## CC(=O)c1ccccc1 [Acetophenone]
[1]; [21]
  Vmax: 100%
[1]; acetophenone conversion, 0.2 mM NADPH, pH 7.0, 30° C.
  Substrate concentration at maximum enzyme activity: 5.3 mM
[1]; at 5.3 mM acetophenone, 0.2 mM NADPH
  Maximum activity: 18.6 U/ml
[1]; in the presence of NADPH
  Reduction by the enzyme (in words): capable of catalyzing the reduction; also recorded: capable of reducing
[1]; up to an acetophenone concentration of 10.6 mM
  Excess substrate inhibition: no excess substrate inhibition

## C[C@@H](O)c1ccccc1 [R(+)-Phenylethanol]
[2]
  Enzyme activity (oxidation): 3.5 U/ml
  Vmax: 11%
  Stereospecificity / effect on the enzyme (in words): highly specific

## CC(C)=O [Acetone]
[1]; [18]
  Vmax: 96%
[1]; in the presence of NADPH
  Reduction by the enzyme (in words): capable of catalyzing the reduction; also recorded: capable of reducing

## CCN1C(=O)C=CC1=O [N-Ethylmaleimide]
[3]
  Effect on enzyme activity (in words): relatively weak inhibition
[3]; [22]
  remaining activity at 1000 µM: 81%

## CCCCCC(=O)CC [Ethyl pentyl ketone]
[1]; [21]
  Vmax: 66%
[1]; in the presence of NADPH
  Reduction by the enzyme (in words): capable of catalyzing the reduction; also recorded: capable of reducing

## c1cnc2c(c1)ccc1cccnc12 [1,10-Phenanthroline]
[3]
  Effect on enzyme activity (in words): virtually no inhibition
[3]; [22]
  remaining activity at 1000 µM: 99%

## CC(=O)c1ccc2ccccc2c1 [Methyl 2-naphthyl ketone]
[1]; [21]
  Vmax: 11%

## NC(=O)CI [Iodoacetamide]
[3]
  Effect on enzyme activity (in words): relatively weak inhibition
[3]; [22]
  remaining activity at 1000 µM: 90%

## CCCCCCC(C)=O [Methyl hexyl ketone]
[1]; [21]
  Vmax: 91%
[1]; in the presence of NADPH
  Reduction by the enzyme (in words): capable of catalyzing the reduction; also recorded: capable of reducing

## NC(=O)c1ccc[n+]([C@@H]2O[C@H](COP(=O)(O)OP(=O)(O)OC[C@H]3O[C@@H](n4cnc5c(N)ncnc54)[C@H](OP(=O)(O)O)[C@@H]3O)[C@@H](O)[C@H]2O)c1 [NADP^+]
[2]
  Vmax: 17%

## [Cl-].[Cl-].[Mg+2] [MgCl2]
[3]; [20]
  Activity remaining: 132%

## CC(=O)CCc1ccccc1 [4-Phenyl-2-butanone]
[1]; [21]
  Vmax: 90%
[1]; in the presence of NADPH
  Reduction by the enzyme (in words): capable of catalyzing the reduction; also recorded: capable of reducing

B1: phenylethanol dehydrogenase (Lentilactobacillus kefiri) (protein)
chain: TDRLKGKVAIVTGGTLGIGLAIADKFVEEGAKVVITGRHADVGEKAAKSIGGTDVIRFVQHDASDEAGWTKLFDTTEEAFGPVTTVVNNAGIAVSKSVEDTTTEEWRKLLSVNLDGVFFGTRLGIQRMKNKGLGASIINMSSIEGFVGDPTLGAYNASKGAVRIMSKSAALDCALKDYDVRVNTVHPGYIKTPLVDDLEGAEEMMSQRTKTPMGHIGEPNDIAWICVYLASDESKFATGAEFVVDGGYTAQ
[4]
  Km: 37900 µM
[5]
  Km: 140 µM
[6]
  Km: 681 µM
[7]
  Km: 2740 µM
[8]
  Km: 372 µM
[9]
  Km: 390 µM
[10]
  Km: 3380 µM
[11]
  Km: 600 µM
[12]
  Km: 9400 µM
[13]
  Km: 251 µM
[14]
  Km: 117 µM
[15]
  Km: 190 µM
[16]
  Km: 3500 µM
[17]
  Km: 4300 µM
